The test system of one data set is BMOL-T. The data set is described as follows: Antiproliferative activity against mouse BMOL-T cells assessed as cell growth inhibition at 10 uM measured every 4 hrs for 3 days by IncuCyte zoom live cell analysis relative to control. It counts as functional. The conditions noted are these: time 3.0 day.
A short description of data set [1]: Antiproliferative activity against mouse BMOL-NT cells assessed as cell growth by measuring doubling time at 10 uM measured every 4 hrs for 3 days by IncuCyte zoom live cell analysis (reference value: 18 to 19 hrs). It counts as cell-based. As to conditions: 72 h, time 3 day.
Data set [2] is described as follows: Antiproliferative activity against mouse BMOL-T cells assessed as cell growth by measuring doubling time at 10 uM measured every 4 hrs for 3 days by IncuCyte zoom live cell analysis (reference value: 14.3 to 15 hrs). It counts as functional. As to conditions: time 3 day.
A short description of data set [3]: Antiproliferative activity against mouse BMOL-T cells assessed as change in doubling time at 10 uM measured every 4 hrs for 3 days by IncuCyte zoom live cell analysis relative to control. It counts as functional. The conditions noted are these: time 3 day.
A short description of data set [4]: Antiproliferative activity against mouse BMOL-NT cells assessed as cell growth inhibition at 10 uM measured every 4 hrs for 3 days by IncuCyte zoom live cell analysis relative to control. The conditions noted are these: time 3 day; for Activity: bmol-nt, 72 h, 10 µM; for inhibition at 72 h, 10 µM: BMOL-NT cells. It counts as cell-based.

The source made the active and inactive calls. The rule behind the calls is not given here. Bounds are passed on as bounds.

`O=C1CCC(N2C(=O)c3cccc(Sc4ccc(C(F)(F)F)cn4)c3C2=O)C(=O)N1` (stereo not given): the outcome in the data set with BMOL-T was inactive.

As to `O=C1CCC(N2C(=O)c3cccc(Sc4ccc(C(F)(F)F)cc4)c3C2=O)C(=O)N1` (stereo not given), in the data set with BMOL-T, the outcome was inactive.

For `CC(C)Oc1ccc(Nc2cccc3c2C(=O)N(C2CCC(=O)NC2=O)C3=O)cc1` (stereo not given), in the data set on BMOL-T, the result was Active.

For the compound `O=C1CCC(N2C(=O)c3cccc(Nc4ccccc4)c3C2=O)C(=O)N1` (stereo not given), the Time was found to be 17.4 h in data set [1] and 14.3 h in data set [2]. Moreover, the Activity in data set [3] was 7%.

Regarding `O=C1CCC(N2C(=O)c3ccccc3C2=O)C(=O)N1` (stereo not given) [THALIDOMIDE], the Time in data set [1] came out at 18 h; in data set [2], 15 h.

As to `O=C1CCC(N2C(=O)c3cccc(Nc4ccccn4)c3C2=O)C(=O)N1` (stereo not given), the Activity result in data set [4] is listed as “Toxic”.

On to `CC(C)c1ccc(Oc2cccc3c2C(=O)N(C2CCC(=O)NC2=O)C3=O)cc1` (stereo not given), for which the Time was 17.5 h in data set [1] and 15.4 h in data set [2]. Also, in data set [3], the Activity is given as 5%.

As for `CC(C)c1ccc(Cc2cccc3c2C(=O)N(C2CCC(=O)NC2=O)C3=O)cc1` (stereo not given), the Time amounted to 17.5 h in data set [1] and 17 h in data set [2]. Also, the Activity in data set [3] stood at 17%.

`CC(C)c1ccc(Nc2cccc3c2C(=O)N(C2CCC(=O)NC2=O)C3=O)cc1` (stereo not given): the Time in data set [1] was determined as 17.3 h; in data set [2], 16.3 h. Also, the Activity in data set [3] is listed as 19%.

With `COc1ccc(Sc2cccc3c2C(=O)N(C2CCC(=O)NC2=O)C3=O)cc1` (stereo not given), the Activity result in data set [4] is on record as “Toxic”.

`CCc1ccc(Nc2cccc3c2C(=O)N(C2CCC(=O)NC2=O)C3=O)cc1` (stereo not given): the inhibition at 72 h, 10 µM in data set [4] is ≤ 10%. Moreover, the result in the data set on BMOL-T was Active.

For `COc1ccc(Nc2cccc3c2C(=O)N(C2CCC(=O)NC2=O)C3=O)cc1` (stereo not given), the outcome in the data set with BMOL-T was Active.

Turning to `O=C1CCC(N2C(=O)c3cccc(Sc4ncccn4)c3C2=O)C(=O)N1` (stereo not given), the Activity entry in data set [4] was “Non-Toxic”.

As to `O=C1CCC(N2C(=O)c3cccc(Nc4ccc(O)cc4)c3C2=O)C(=O)N1` (stereo not given), the result in the data set on BMOL-T was Active.

As for `O=C1CCC(N2C(=O)c3cccc(Nc4ccc5c(c4)CCCC5)c3C2=O)C(=O)N1` (stereo not given), in data set [4], the inhibition at 72 h, 10 µM was ≤ 10%. Besides, the outcome in the data set on BMOL-T was Active.

Regarding `Cc1ccc(Nc2cccc3c2C(=O)N(C2CCC(=O)NC2=O)C3=O)cc1` (stereo not given), in the data set with BMOL-T, the result was inactive.

Consider `O=C1CCC(N2C(=O)c3cccc(Sc4ccc5ccccc5n4)c3C2=O)C(=O)N1` (stereo not given), for which the Activity entry in data set [4] is recorded as “Non-Toxic”.

As for `CN(C)c1ccc(Nc2cccc3c2C(=O)N(C2CCC(=O)NC2=O)C3=O)cc1` (stereo not given), the outcome with BMOL-T was Active.

On to `Cc1ccc(Sc2cccc3c2C(=O)N(C2CCC(=O)NC2=O)C3=O)cc1` (stereo not given), for which, in data set [1], the Time was 19.3 h.

`CCCCc1ccc(Nc2cccc3c2C(=O)N(C2CCC(=O)NC2=O)C3=O)cc1` (stereo not given): in data set [4], the inhibition at 72 h, 10 µM was ≤ 10%. The result in the data set with BMOL-T was Active.

In the case of `Nc1cccc2c1C(=O)N(C1CCC(=O)NC1=O)C2=O` (stereo not given) [POMALIDOMIDE], the Time came out at 18 h in data set [1] and 15 h in data set [2].

For the compound `CC(C)c1ccc(Nc2ccc3c(c2)C(=O)N(C2CCC(=O)NC2=O)C3=O)cc1` (stereo not given), the figures for the Time in data set [1] and in data set [2] were 17.2 h and 14.1 h, respectively. Besides, the Activity in data set [3] was 3%.

As for `O=C1CCC(N2C(=O)c3ccc(Nc4ccccc4)cc3C2=O)C(=O)N1` (stereo not given), the Time worked out at 17.4 h in data set [1] and 14.7 h in data set [2]. In addition, the Activity in data set [3] came to 4%.

In the case of `CCCc1ccc(Nc2cccc3c2C(=O)N(C2CCC(=O)NC2=O)C3=O)cc1` (stereo not given), the outcome in the data set with BMOL-T was Active.

Turning to `O=C1CCC(N2C(=O)c3cccc(Oc4ccccc4)c3C2=O)C(=O)N1` (stereo not given), the values for the Time in data set [1] and in data set [2] were 16.9 h and 14.3 h, respectively. For the same compound, in data set [3], the Activity is 6%.

`Cc1ccccc1Nc1cccc2c1C(=O)N(C1CCC(=O)NC1=O)C2=O` (stereo not given): the outcome in the data set with BMOL-T was inactive.

As usually defined, the inhibition is the change of the read-out against control, counted positive when it falls.

The record behind these values is ChEMBL document CHEMBL4814031, “In pursuit of a selective hepatocellular carcinoma therapeutic agent: Novel thalidomide derivatives with antiproliferative, antimigratory and STAT3 inhibitory properties” (Eur J Med Chem, 2021).
